Reference: patent publication US20250064090A1 (priority 2020, published 2025)
Read-outs that look alike come from different tables or passages of the source.

Experiments:
[1] = test system: E. coli strains HT-99 (donor) and J53R (receptor); format: cell-based, Escherichia coli; conditions: for Class of ingredient by conjugation frequency compared to control (in words): single ingredient, 100 mg/L, from Table 1
HT99 or J53R cells = format: cell-based, E. coli

SMILES	Conjugation frequency [1]	Conjugation frequency ([1]; 3 hours, 37° C.)	Class of ingredient by conjugation frequency compared to control (in words) [1]	Conjugation compared to control (in words) ([1]; result in words)	Conjugation frequency ([1]; citral alone or mixed with conjugation inhibitors (100 mg of each per mL stock, 10 μL in 10 mL), control 0.0014)	expression of the yqfA gene (hemolysin III family protein) (HT99 or J53R cells)	fatty acid biosynthesis (fabB) gene expression upon treatment with oleic acid (HT99 or J53R cells)	fatty acid degradation (fadB) gene expression upon treatment with oleic acid (HT99 or J53R cells)
Cc1ccc(C(C)C)cc1O [Carvacrol, carvacrol]	0.0052	0.0044	conjugation enhancers					
O=CC=Cc1ccccc1 [Cinnamaldehyde, cinnamaldehyde]	0.0014	0.0011	conjugation inert ingredient	not affected				
CC(C)=CCCC(C)=CC=O [Citral, citral]		0.0023	conjugation enhancers		0.0028			
C=CC(C)(O)CCC=C(C)C (stereo not drawn) [Linalool, linalool]		0.00085	conjugation inhibitors					
CCCCCCCC/C=C\CCCCCCCC(=O)O [Oleic acid, oleic acid]		0.00011	conjugation inhibitors			reduced	inhibition	inducing
O=C(OC[C@H]1O[C@@H](OC(=O)c2cc(O)c(O)c(OC(=O)c3cc(O)c(O)c(O)c3)c2)[C@H](OC(=O)c2cc(O)c(O)c(OC(=O)c3cc(O)c(O)c(O)c3)c2)[C@@H](OC(=O)c2cc(O)c(O)c(OC(=O)c3cc(O)c(O)c(O)c3)c2)[C@@H]1OC(=O)c1cc(O)c(O)c(OC(=O)c2cc(O)c(O)c(O)c2)c1)c1cc(O)c(O)c(OC(=O)c2cc(O)c(O)c(O)c2)c1 [Tannic acid, tannic acid]		0.00007	conjugation inhibitors					
Cc1ccc(C(C)C)c(O)c1 [Thymol, thymol]		0.0019	conjugation enhancers					
